# Results from article PMC6696278 (International Journal of Molecular Sciences, 2019).
# Assays:
# Format in all cases: binding
# human galectin-1 = biological target: T1, human galectin-1 (Homo sapiens, UniProt P09382); experiment: competitive fluorescence polarization assay, galectin-1; conditions: for Kd: average and SEM of 4–8 single-triple point measurements, PBS
# T1 construct: made in house
# Source text: (§1) Human galectin-1 [25], galectin-2 [26], galectin-3 [27], galectin-4N [19], galectin-4C [19], galectin-8N [28], galectin-8C [28], galectin-9N [29], and galectin-9C [30], were expressed and purified as described earlier. Human galectin-7 was expressed using a pET3c plasmid in E. coli BL21-star. The plasmid containing expression optimized DNA encoding the full human galectin-7 sequence (NCBI Reference Sequence: NP_002298.1) was obtained from GenScript (Piscataway, NJ, USA). […] Lactose was removed by chromatography on a PD-10 column (Amersham Biosciences) with repeated ultrafiltration with Centriprep (Amicon).
# (§2) Fluorescence polarization experiments were carried out either with a POLARStar plate reader and FLUOstar Galaxy software or with a PheraStarFS plate reader and PHERAstar Mars version 2.10 R3 software (BMG, Offenburg, Germany). The dissociation constant (Kd) values were determined in PBS as described earlier. Specific conditions for galectin-1, 2, 3, 4N, 4C, 8N, 8C, 9N, and 9C were kept as reported. Experiments were performed at room temperature with human galectin-7 at 5 µM and the fluorescent probe β-D-galactopyranosyl-(1–4)-2-acetamido-2-deoxy-β-d-glucopyranosyl-(1–3)-β-d-galactopyranosyl-(1–4)-(N1-fluorescein-5-yl-carbonylaminomethylcarbonyl)-β-D-glucopyranosylamine at 0.02 µM. All the compounds in Table 1 except 32 were dissolved in a neat DMSO at 100 mM and diluted in PBS to three to six different concentrations to be tested in duplicate.
# human galectin-3 = biological target: T2, human galectin-3 (Homo sapiens, UniProt P17931); experiment: competitive fluorescence polarization assay, galectin-3; conditions: average and SEM, PBS
# T2 construct: made in house; host or cells: vector pET3c (the same vector as galectin-7)
# T2 sequence (P17931 whole entry): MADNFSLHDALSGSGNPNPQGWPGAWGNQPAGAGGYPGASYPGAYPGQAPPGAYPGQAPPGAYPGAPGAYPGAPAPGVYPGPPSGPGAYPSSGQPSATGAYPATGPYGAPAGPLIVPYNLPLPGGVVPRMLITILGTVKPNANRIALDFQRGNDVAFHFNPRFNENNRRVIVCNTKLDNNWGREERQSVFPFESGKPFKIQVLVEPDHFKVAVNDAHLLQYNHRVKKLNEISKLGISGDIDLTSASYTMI
# Source text: as §1, §2
# [1] = biological target: T3, human galectin-4N (N-terminal domain) (Homo sapiens, UniProt P56470); experiment: competitive fluorescence polarization assay, galectin-4N; conditions: for Kd: N-terminal domain, average and SEM, PBS
# T3 construct: 4N (N-terminal domain) 4C (C-terminal domain); made in house
# T3 sequence (P56470 19-150 limits assumed): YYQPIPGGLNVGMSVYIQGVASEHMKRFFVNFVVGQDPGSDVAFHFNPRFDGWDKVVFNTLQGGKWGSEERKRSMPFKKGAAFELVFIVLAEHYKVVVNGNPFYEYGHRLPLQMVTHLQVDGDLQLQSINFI
# Source text: (§3) Human galectin-1 [25], galectin-2 [26], galectin-3 [27], galectin-4N [19], galectin-4C [19], galectin-8N [28], galectin-8C [28], galectin-9N [29], and galectin-9C [30], were expressed and purified as described earlier. Human galectin-7 was expressed using a pET3c plasmid in E. coli BL21-star. The plasmid containing expression optimized DNA encoding the full human galectin-7 sequence (NCBI Reference Sequence: NP_002298.1) was obtained from GenScript (Piscataway, NJ, USA). Bacterial culture and induction, and galectin purification was essential as described for galectin-3 expressed with the same vector [27]; a typical yield was 1.5–2 mg/L culture. Lactose was removed by chromatography on a PD-10 column (Amersham Biosciences) with repeated ultrafiltration with Centriprep (Amicon).
# as §2
# human galectin-7 = biological target: T4, human galectin-7 (Homo sapiens, UniProt P47929); experiment: competitive fluorescence polarization assay, galectin-7; conditions: average and SEM, PBS, room temperature, galectin-7 at 5 µM, probe 0.02 µM
# T4 construct: made in house; host or cells: E. coli BL21-star, pET3c plasmid (DNA from GenScript)
# T4 sequence (P47929 whole entry): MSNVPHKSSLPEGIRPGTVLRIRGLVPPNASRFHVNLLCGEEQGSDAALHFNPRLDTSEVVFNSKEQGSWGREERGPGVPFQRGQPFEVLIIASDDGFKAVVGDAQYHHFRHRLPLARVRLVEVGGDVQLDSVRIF
# Source text: as §3, §2
# [2] = biological target: T5, human galectin-8N (N-terminal domain) (Homo sapiens, UniProt O00214); experiment: competitive fluorescence polarization assay, galectin-8N; conditions: PBS
# T5 construct: 4N (N-terminal domain) 4C (C-terminal domain), 7, 8N, 8C, 9N, and 9C; made in house
# T5 sequence (O00214 19-152 limits assumed): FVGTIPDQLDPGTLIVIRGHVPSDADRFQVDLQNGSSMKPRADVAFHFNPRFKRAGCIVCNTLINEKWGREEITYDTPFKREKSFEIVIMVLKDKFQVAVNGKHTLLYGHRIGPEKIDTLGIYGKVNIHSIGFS
# Source text: as §1, §2
# [3] = biological target: T6, human galectin-8C (C-terminal domain) (Homo sapiens, UniProt O00214); experiment: competitive fluorescence polarization assay, galectin-8C; conditions: PBS
# T6 construct: 4N (N-terminal domain) 4C (C-terminal domain), 7, 8N, 8C, 9N, and 9C; made in house
# T6 sequence (O00214 187-317 limits assumed): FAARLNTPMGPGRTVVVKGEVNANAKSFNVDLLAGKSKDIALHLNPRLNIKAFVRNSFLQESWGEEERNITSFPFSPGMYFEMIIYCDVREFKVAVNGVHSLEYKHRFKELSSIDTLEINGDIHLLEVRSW
# Source text: as §1, §2
# [4] = biological target: T7, human galectin-9N (N-terminal domain) (Homo sapiens, UniProt O00182); experiment: competitive fluorescence polarization assay, galectin-9N; conditions: PBS
# T7 construct: 4N (N-terminal domain) 4C (C-terminal domain), 7, 8N, 8C, 9N, and 9C; made in house
# T7 sequence (O00182 17-148 limits assumed): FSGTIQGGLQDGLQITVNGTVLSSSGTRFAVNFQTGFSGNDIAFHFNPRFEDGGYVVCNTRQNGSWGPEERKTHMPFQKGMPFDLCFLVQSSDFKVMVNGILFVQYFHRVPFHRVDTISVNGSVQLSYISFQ
# Source text: as §3, §2
# [5] = biological target: T8, human galectin-9C (C-terminal domain) (Homo sapiens, UniProt O00182); experiment: competitive fluorescence polarization assay, galectin-9C; conditions: PBS
# T8 construct: 4N (N-terminal domain) 4C (C-terminal domain), 7, 8N, 8C, 9N, and 9C; made in house
# T8 sequence (O00182 227-355 limits assumed): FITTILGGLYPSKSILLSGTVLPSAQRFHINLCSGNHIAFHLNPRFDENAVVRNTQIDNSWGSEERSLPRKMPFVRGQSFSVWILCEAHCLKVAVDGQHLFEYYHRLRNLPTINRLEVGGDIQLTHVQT
# Source text: as §1, §2
# human galectin-2 = biological target: T9, human galectin-2 (Homo sapiens, UniProt P05162); experiment: competitive fluorescence polarization assay, galectin-2; conditions: average and SEM, PBS
# T9 construct: made in house
# T9 sequence (P05162 1-132): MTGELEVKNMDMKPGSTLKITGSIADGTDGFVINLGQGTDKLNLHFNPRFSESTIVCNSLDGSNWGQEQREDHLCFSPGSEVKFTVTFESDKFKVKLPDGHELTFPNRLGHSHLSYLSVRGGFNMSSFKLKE
# Source text: as §3, §2
# [6] = biological target: T10, human galectin-4C (C-terminal domain) (Homo sapiens, UniProt P56470); experiment: competitive fluorescence polarization assay, galectin-4C; conditions: PBS
# T10 construct: 4N (N-terminal domain) 4C (C-terminal domain); made in house
# T10 sequence (P56470 194-323 limits assumed): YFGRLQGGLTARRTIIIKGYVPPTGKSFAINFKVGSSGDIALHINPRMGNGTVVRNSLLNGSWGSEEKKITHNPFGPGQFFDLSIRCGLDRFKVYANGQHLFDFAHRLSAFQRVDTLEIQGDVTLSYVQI
# Source text: as §1, §2
# T1 sequence (P09382 whole entry): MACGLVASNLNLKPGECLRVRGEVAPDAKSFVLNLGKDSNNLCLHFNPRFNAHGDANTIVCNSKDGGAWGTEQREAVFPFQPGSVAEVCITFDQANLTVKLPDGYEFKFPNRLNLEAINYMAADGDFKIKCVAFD
Structure (SMILES),Kd (human galectin-1; Table 1),Kd (human galectin-3; Table 1),Kd ([1]; Table 1),Kd (human galectin-7; Table 1),"Kd ([2]; Table 1, average and SEM)","Kd ([3]; Table 1, average and SEM)","Kd ([4]; Table 1, average and SEM)","Kd ([5]; Table 1, average and SEM)",Kd (human galectin-2; Table 1),"Kd ([6]; Table 1, average and SEM)",Kd (human galectin-2; Table 2),"Kd ([4]; Table 2, average and SEM)","Kd ([5]; Table 2, average and SEM)",further results
"CO[C@@H]1O[C@H](CO)[C@H](O)[C@@H](CO)[C@H]1O [Compound 1a, Methyl 3-Deoxy-3-C-Hydroxymethyl-β-D-Gulopyranoside]",1.3 ± 0.15 mM,> 4 mM,> 4 mM,> 4 mM,> 4 mM,3.7 ± 0.02 mM,> 4 mM,> 4 mM,,,,,,fold better affinity for galectin-1 than reference methyl β-D-galactopyranoside 32 (human galectin-1; ratio of Kd values): 7 fold
"CO[C@@H]1O[C@H](CO)[C@H](O)[C@H](CO)[C@H]1O [Compound 1b, Methyl 3-Deoxy-3-C-Hydroxymethyl-β-D-Galactopyranoside]",> 4 mM,> 4 mM,> 4 mM,> 4 mM,> 4 mM,> 4 mM,> 4 mM,> 4 mM,> 4 mM,> 4 mM,,,,binding to galectin-4N (in words) [1]: weak binding
"CO[C@@H]1O[C@H](CO)[C@H](O)[C@H](COc2cccc(C(F)(F)F)c2)[C@H]1O [Compound 2, Methyl 3-Deoxy-3-C-(3-Trifluoromethylphenoxymethyl)-β-D-Galactopyranoside]",> 4 mM,> 4 mM,> 4 mM,> 4 mM,> 4 mM,> 4 mM,> 4 mM,> 4 mM,> 4 mM,> 4 mM,,,,
"COC[C@H]1[C@@H](O)[C@@H](CO)O[C@@H](OC)[C@@H]1O [Compound 3, Methyl 3-Deoxy-3-C-Methoxymethyl-β-D-Galactopyranoside]",> 4 mM,> 4 mM,,,> 4 mM,> 4 mM,,,,,,,,
"CO[C@@H]1O[C@H](CO)[C@H](O)[C@H](Cn2cc(-c3cccc(F)c3)nn2)[C@H]1O [Compound 4, Methyl 3-Deoxy-3-C-[4-(3-Fluorophenyl)-1H-1,2,3-Triazol-1-Ylmethyl]-β-D-Galactopyranoside]",> 4 mM,> 4 mM,> 4 mM,> 4 mM,> 4 mM,> 4 mM,> 4 mM,> 4 mM,> 4 mM,> 4 mM,,,,
"CO[C@@H]1O[C@H](CO)[C@H](O)[C@H](CNC(=O)Nc2cccc(F)c2)[C@H]1O [Compound 5, Methyl 3-Deoxy-3-C-(3-Fluorophenylureido)Methyl-β-D-Galactopyranoside]",> 4 mM,> 4 mM,> 4 mM,> 4 mM,> 4 mM,> 4 mM,> 4 mM,> 4 mM,> 4 mM,> 4 mM,,,,
"CO[C@@H]1O[C@H](CO)[C@H](O)[C@@H](CNP(=O)(Oc2ccccc2)Oc2ccccc2)[C@H]1O [Compound 8, Methyl 3-Deoxy-3-C-(Diphenylphosphonamidomethyl)-β-D-Galactopyranoside]",> 10 mM,> 4 mM,> 4 mM,> 4 mM,> 4 mM,> 4 mM,,> 5 mM,,> 4 mM,,,,

# More lines, main results first:
Kd (human galectin-1; Table 1),Kd (human galectin-3; Table 1),Kd ([1]; Table 1),Kd (human galectin-7; Table 1),"Kd ([2]; Table 1, average and SEM)","Kd ([3]; Table 1, average and SEM)","Kd ([4]; Table 1, average and SEM)","Kd ([5]; Table 1, average and SEM)",Kd (human galectin-2; Table 1),"Kd ([6]; Table 1, average and SEM)",Kd (human galectin-2; Table 2),"Kd ([4]; Table 2, average and SEM)","Kd ([5]; Table 2, average and SEM)",Structure (SMILES),further results
> 10 mM,> 4 mM,> 4 mM,> 4 mM,> 4 mM,> 4 mM,,> 4 mM,,> 4 mM,,,,"CO[C@@H]1O[C@H](CO)[C@H](O)[C@@H](CNS(=O)(=O)c2ccccc2)[C@H]1O [Compound 6, Methyl 3-Deoxy-3-C-(Phenylsufonamido)Methyl-β-D-Galactopyranoside]",
1.8 ± 0.15 mM,> 4 mM,> 4 mM,> 4 mM,> 4 mM,> 4 mM,,> 4 mM,> 4 mM,> 4 mM,,,,"CO[C@@H]1O[C@H](CO)[C@H](O)[C@@H](CNC(=O)c2ccccc2)[C@H]1O [Compound 7a, Methyl 3-Deoxy-3-C-Benzamidomethyl-β-D-Gulopyranoside]",
,,,,,,,,,,> 4 mM,> 4 mM,> 4 mM,"CO[C@@H]1O[C@H](CO)[C@H](O)[C@@H](CNC(C)=O)[C@H]1O [Compound 7b, Methyl 3-Deoxy-3-C-Acetamidomethyl-β-D-Gulopyranoside]","Kd (human galectin-1; Table 2): 1.5 ± 0.08 mM; Kd (human galectin-3; Table 2): > 4 mM; Kd ([1]; Table 2): 1.9 ± 0.05 mM; Kd ([6]; Table 2, average and SEM): > 4 mM; Kd (human galectin-7; Table 2): > 4 mM; Kd ([2]; Table 2, average and SEM): > 4 mM; Kd ([3]; Table 2, average and SEM): 2.7 ± 0.5 mM"
,,,,,,,,,,> 4 mM,> 4 mM,> 4 mM,"CO[C@@H]1O[C@H](CO)[C@H](O)[C@H](CNC(=O)c2ccccc2F)[C@H]1O [Compound 7c, Methyl 3-Deoxy-3-C-(2-Fluorobenzamidomethyl)-β-D-Galactopyranoside]","Kd (human galectin-1; Table 2): 1.9 ± 0.04 mM; Kd (human galectin-3; Table 2): > 4 mM; Kd ([1]; Table 2): 2.2 ± 0.16 mM; Kd ([6]; Table 2, average and SEM): > 4 mM; Kd (human galectin-7; Table 2): > 4 mM; Kd ([2]; Table 2, average and SEM): > 4 mM; Kd ([3]; Table 2, average and SEM): > 4 mM"
,,,,,,,,,,> 4 mM,> 4 mM,> 4 mM,"CO[C@@H]1O[C@H](CO)[C@H](O)[C@H](CNC(=O)c2cccc(F)c2)[C@H]1O [Compound 7d, Methyl 3-Deoxy-3-C-(3-Fluorobenzamidomethyl)-β-D-Galactopyranoside]","Kd (human galectin-1; Table 2): 1.9 ± 0.4 mM; Kd (human galectin-3; Table 2): > 4 mM; Kd ([1]; Table 2): > 4 mM; Kd ([6]; Table 2, average and SEM): > 4 mM; Kd (human galectin-7; Table 2): > 4 mM; Kd ([2]; Table 2, average and SEM): > 4 mM; Kd ([3]; Table 2, average and SEM): > 4 mM"
,,,,,,,,,,10 ± 1.5 mM,> 4 mM,> 4 mM,"CO[C@@H]1O[C@H](CO)[C@H](O)[C@@H](O)[C@H]1O [Compound 9, Methyl β-D-Gulopyranoside]",Kd (human galectin-7; Table 2): > 4 mM
,,,,,,,,,,> 4 mM,> 4 mM,> 4 mM,"CO[C@@H]1O[C@H](CO)[C@H](O)[C@@H](NC(=O)c2ccccc2)[C@H]1O [Compound 10, Methyl 3-Benzamido-3-Deoxy-β-D-Gulopyranoside]","Kd (human galectin-1; Table 2): > 4 mM; binding to galectin-1 (in words) (human galectin-1; under the assay conditions): no binding; Kd (human galectin-3; Table 2): > 4 mM; binding to galectin-4N (in words) [1]: improved binding; Kd ([1]; Table 2): 1.3 ± 0.2 mM; Kd ([6]; Table 2, average and SEM): > 4 mM; Kd ([2]; Table 2, average and SEM): > 4 mM; Kd ([3]; Table 2, average and SEM): > 4 mM"
